The values below come from US20250308265A1, “METHODS AND SYSTEMS FOR CHARACTERIZING MORPHODYNAMIC PROFILES OF OBJECTS” (The Chancellor, Masters and Scholars of the University of …, priority 2022, published 2025).

Read-outs that look alike come from different tables or passages of the source.

In data set [1] the test system is normal patient-derived duodenal organoids. Description: Chemotherapy drug toxicity screen with human duodenum organoids, label-free timelapse imaging analysed by SPOT. Conditions: for phenotype cluster frequency over time (stacked barplots): 5 days. As for the experimental part:
Organoids were plated onto 96 well plates as follows. Using ice-cold PBS, the organoids were retrieved from the Matrigel and briefly microcentrifuged. To aid organoid dissociation, the pellet was vigorously resuspended in Trypsin and incubated at 37° C. for 10 min to ensure a high degree of dissociation. The organoid fragments were then briefly microcentrifuged and resuspended in 200 μL of Matrigel. The resuspended organoids were then kept on ice to prevent gelation of the Matrigel. Then, 2 μL of the organoid suspension was seeded inside each well. During this process, the organoid-Matrigel mix was resuspended every 12 wells to ensure an even mix. The Matrigel was allowed to gelate at room temperature for 5 min. Once the Matrigel solidified, 100 μL of human organoid medium, pre-warmed at 37° C. to prevent the detachment of the Matrigel, was then overlaid and replaced every 2 days. Once the organoids had grown for 6 days inside the 96-well plate, the medium was removed by inversion and washed with pre-warmed PBS at 37° C. After removing the PBS by inversion, the wells were filled with 100 μL of human organoid medium (HOM) with a titration of chemotherapy drugs. […] These concentrations were based on the previously published screening concentrations (van de Wetering, M. et al. Cell 161, 933-945 (2015)). All drugs were solubilized and diluted with DMSO. The different conditions were filmed on a Nikon microscope for 120 h at a frequency of 1 image per hour with a 2× objective.
Human duodenum organoids were harvested and dissociated into single cells following the passaging procedure described above. Cell pellets were resuspended in 500 μL of PBS. Cells were filtered through the cell strainer (70 μm) and counted with the automated cell counter (BIO-RAD). The appropriate cell dilutions were made in GFR Matrigel. Then, the cells were seeded in a pre-warmed 96-well black tissue culture-treated (TC-treated) sterile microplate (PerkinElmer), and plates were incubated for 10 min in a cell culture incubator at 37° C. and 5% CO2 to solidify the Matrigel. Human duodenum organoid culture media (HOM, Table 9) was added to each well (200 μL) and refreshed every other day. For WNT experiments, before performing timelapse video collection, the HOM media was changed to ENR (EGF, Noggin, R-spondin only) for the ENR imaging conditions. Specifically, group HOM organoids were cultured in HOM culture medium for 14 days. Group ENR+WNT3A (day 3) organoids were under ENR treatment for 3 days and then ENR+Wnt3A for 11 days. Group ENR+WNT3A (day 6) organoids were under ENR treatment for 6 days and then ENR+Wnt3a for the next 8 days. Group ENR+Wnt3A (day 9) organoids were under ENR treatment for 9 days and then under ENR+Wnt3A treatment for 5 days. Group ENR organoids were under ENR treatment for 14 days. All images were acquired using a Nikon TE 2000-E Eclipse inverted microscope, with a 10×/0.3 NA Plan Fluor Ph1 objective. The system was maintained at 37° C. in the presence of 5% CO2. Z-stack images 1000 μm in depth were acquired at 100 μm intervals (11 steps per acquisition) approximately every 60 min for 5 days (chemotherapy drug screen) and 14 days (WNT addition experiments).
Multicellular structures, such as organoids, have emerged as attractive experimental models. Further, the complex spatiotemporal dynamics of organoids are underlined by the cells' genetic makeup, cell/cell interactions, and the constituent cells' responses to environmental perturbations. SPOT's potential was therefore tested to measure the spatiotemporal dynamics of organoids using normal patient-derived duodenal organoids grown in a 96-well plate and imaged label-free. The entire SPOT workflow was applied to measure organoid response to eight chemotherapy drugs at three different concentrations. 60-100 organoids were seeded per well, and all organoids were filmed every hour for 5 days (stage 1).

Data set [2] deals with human duodenum organoids. Description: scRNA-seq of human duodenum organoids (HOM, ENR, ENR+WNT3A). To be noted: restoring WNT3A. In kind it is cell-based. From the text: Organoids were individually seeded onto a 24-well plate and cultured for 7 days before treatment as described above.
For scRNA-seq, Group HOM was collected after the initial 7 days' culture before further treatment, that is day 0 of the timelapse acquisition. […] Group ENR organoids were under ENR treatment for a total of 3, 6, and 9 days, respectively, then collected. After being harvested, the organoids were processed in the same manner as for murine organoids.
To understand the molecular basis of WNT depletion-induced morphodynamic changes, scRNA-seq was also performed on the human duodenum organoids cultured under conditions and timescales identical to those used for the SPOT analysis. In total, 8763 single cell transcriptomes were generated. […] Examining the expression of WNT, YAP targets, fetal and RSC signatures in organoid-derived cells as a function of the time of WNT3A rescue, it is evident that there is an inverse association between high WNT and high YAP target-expressing cells. Also, the kinetics of RSC signature expression levels coincide with the extent of phenotypic changes detected by SPOT. Thus, WNT-deprived ENR medium induces RSCs that lead to the development of morphologically irregular and flattened organoids.

For data set [3], the system named is human duodenum organoids. Kind of data set: Delayed WNT3A restoration to ENR-cultured human duodenum organoids, timelapse imaging analysed by SPOT. In kind it is cell-based. As for the experimental part:
Cell pellets were resuspended in 500 μL of PBS. […] The appropriate cell dilutions were made in GFR Matrigel.
The observed flattening phenotype is visually reminiscent of Apc^min/+ murine colon organoids. However, the role of WNT on the morphodynamic changes of human organoids was unexpected. Whereas Apc^min/+ organoids should have high WNT signaling, ENR medium lacks WNT. To test the direct impact of WNT on the morphological changes of human duodenum organoids, WNT3A, a potent inducer of WNT signaling, was added to the ENR medium at day 3, 6, and 9 after the initial transfer of human duodenum organoids to ENR. […] To quantify the impact of WNT3A restoration, all organoids were grown in 96-well plates for 7 days, and live-cell images were captured every hour for the next 14 days (FIG. 5c). The spatiotemporal dynamics of a library of >500,000 segmented organoid instances over all timepoints and videos were analyzed by SPOT in the same manner as mouse colon organoids, and the organoids were subsequently classified into one of 7 phenotype clusters. Quantifying the expression of representative SAM features, as expected, organoids cultured in HOM were large and spherical, shown by enriched distribution of yellow cluster 6.

With `O=c1[nH]cc(F)c(=O)[nH]1` [5-fluorouracil], in data set [1], the relative toxicity result is recorded as “lower relative toxicity”, the temporal phenotype trajectory result was “milder toxicity” and the “phenotype cluster frequency over time (stacked barplots)” value was “approximately maintain the fraction of the cluster 2 large spherical organoid phenotype”.
As to `CC(=O)O[C@@]12CO[C@@H]1C[C@H](O)[C@@]1(C)C(=O)[C@H](O)C3=C(C)[C@@H](OC(=O)[C@H](O)[C@@H](NC(=O)OC(C)(C)C)c4ccccc4)C[C@@](O)([C@@H](OC(=O)c4ccccc4)[C@H]21)C3(C)C` [docetaxel, Docetaxel], the “HMM cluster transition pattern” value in data set [1] was “conserved cluster transition pattern”.
Regarding `COc1cccc2c1C(=O)c1c(O)c3c(c(O)c1C2=O)C[C@@](O)(C(=O)CO)C[C@@H]3O[C@H]1C[C@H](N)[C@@H](O)[C@H](C)O1` [epirubicin, Epirubicin], in data set [1], the “HMM cluster transition pattern” value was “conserved cluster transition pattern” and the temporal phenotype trajectory result was “opposing trajectory from top to bottom”.
With `COc1cc2ncnc(Nc3ccc(F)c(Cl)c3)c2cc1OCCCN1CCOCC1` [gefitinib, Gefitinib], in data set [1], the relative toxicity entry is reported as “lower relative toxicity”, the temporal phenotype trajectory entry is reported as “milder toxicity” and the “phenotype cluster frequency over time (stacked barplots)” value is “approximately maintain the fraction of the cluster 2 large spherical organoid phenotype”.
Consider `CCc1c2c(nc3ccc(OC(=O)N4CCC(N5CCCCC5)CC4)cc13)-c1cc3c(c(=O)n1C2)COC(=O)[C@]3(O)CC` [irinotecan, Irinotecan], for which, in data set [1], the “HMM cluster transition pattern” value is “loses the autoregulatory loop of cluster 2” and the temporal phenotype trajectory entry is “opposing trajectory from top to bottom”.
With `O=C1[O][Pt]2([NH][C@@H]3CCCC[C@H]3[NH]2)[O]C1=O` [oxaliplatin, Oxaliplatin], in data set [1] (all three concentrations, highest: cisplatin 6, oxaliplatin 20, mitomycin C 0.03, 5-fluorouracil 20, gefitinib 0.5, irinotecan 5, docetaxel 0.0125, epirubicin 4.5 μM, vs DMSO control), the “impact on organoid morphology (UMAP density heatmaps)” value is listed as “limited impact on organoid morphology”. Moreover, the temporal phenotype trajectory entry in data set [1] (compared with DMSO trajectory) is recorded as “Predominant organoid growth”. The relative toxicity result in data set [1] (final timepoints, maximum concentration, 5 days filming) is on record as “lower relative toxicity”.

B1: WNT3A: a potent inducer of WNT signaling, added to the ENR medium (protein, UniProt P56704 19-352, looked up)
Protein Wnt-3a: SYPIWWSLAVGPQYSSLGSQPILCASIPGLVPKQLRFCRNYVEIMPSVAEGIKIGIQECQHQFRGRRWNCTTVHDSLAIFGPVLDKATRESAFVHAIASAGVAFAVTRSCAEGTAAICGCSSRHQGSPGKGWKWGGCSEDIEFGGMVSREFADARENRPDARSAMNRHNNEAGRQAIASHMHLKCKCHGLSGSCEVKTCWWSQPDFRAIGDFLKDKYDSASEMVVEKHRESRGWVETLRPRYTYFKVPTERDLVYYEASPNFCEPNPETGSFGTRDRTCNVSSHGIDGCDLLCCGRGHNARAERRREKCRCVFHWCCYVSCQECTRVYDVHTCK
Regarding B1, the “induction of RSCs leading to morphologically irregular and flattened organoids in WNT-deprived ENR medium” value in the data set on human duodenum organoids [2] was “can be prevented”. In the data set on human duodenum organoids [3] (WNT3A restored on day 3), the “impact on phenotype rescue (proportion of irregularly shaped to spherical organoids)” value (“impact on phenotype rescue” for short) is on record as “biggest impact”; the “organoid growth (cluster 6)” value is “increased”; the “percentage of irregularly shaped organoids (cluster 7)” value was “substantially reduced”; the temporal phenotype trajectory result is “close overlap between day 3 WNT3A restoration and HOM conditions”. In the data set on human duodenum organoids [3] (WNT3A restored on day 6), the “HMM cluster transition graph” value is given as “best reflects the ENR-only condition” and the “impact on phenotype rescue” value was “little impact”. For the same molecule, in the data set with human duodenum organoids [3] (WNT3A restored on day 9), the “HMM cluster transition graph” value was “introduces two new transitions, cluster 5-to-3 and cluster 4-to-2”; the “impact on phenotype rescue” value was “minimal impact”. Further, the “formation of morphologically flattened irregular organoids” value with human duodenum organoids [3] (WNT3A restored to ENR medium at day 3) is “largely prevented”.
